Source: patent US5168100A, “HP530 compounds and process for preparing the same” (Sapporo Breweries Limited, priority 1990, dated 1992)
Values after ≈ are worked out from the molar mass of the structure shown.

System: Proteus vulgaris JCM1668
Test: Antimicrobial activity (MIC), Proteus vulgaris
Type: cell-based
Settings: not given
Excerpt: (§1) The minimum inhibitory concentrations (MIC's) of the HP530 compounds and their derivatives of the invention against bacteria and fungi are shown in Table 2.
In the case of CC=CC1OC1(C)c1cc(=O)c2c(C)cc3c(c2o1)C(=O)c1c(ccc(C2CC(C)(N(C)C)C(O)C(C)O2)c1O)C3=O (stereo not drawn) [Deacetyl HP530D], the MIC is reported as > 100 µg/mL. With Cc1cc2c(c3oc(C4(C)OC4C)cc(=O)c13)C(=O)c1c(ccc(C3CC(C)(N(C)C)C(O)C(C)O3)c1O)C2=O (stereo not drawn) [Deacetyl HP530E] the MIC was > 100 µg/mL.

System: Bacillus subtilis H17Rec^+
Test: Antimicrobial activity (MIC), Bacillus subtilis H17Rec^+
Type: cell-based
Settings: not given
Excerpt: as §1
With CC=CC1OC1(C)c1cc(=O)c2c(C)cc3c(c2o1)C(=O)c1c(ccc(C2CC(C)(N(C)C)C(O)C(C)O2)c1O)C3=O (stereo not drawn) [Deacetyl HP530D] the MIC was 12.5 µg/mL (≈ 21.8 µM). Work on Cc1cc2c(c3oc(C4(C)OC4C)cc(=O)c13)C(=O)c1c(ccc(C3CC(C)(N(C)C)C(O)C(C)O3)c1O)C2=O (stereo not drawn) [Deacetyl HP530E] yielded an MIC of 6.3 µg/mL (≈ 11.5 µM).

System: Saccharomyces cerevisiae JCM1499
Test: Antimicrobial activity (MIC), Saccharomyces cerevisiae
Type: cell-based
Settings: not given
Excerpt: as §1
For CC=CC1OC1(C)c1cc(=O)c2c(C)cc3c(c2o1)C(=O)c1c(ccc(C2CC(C)(N(C)C)C(O)C(C)O2)c1O)C3=O (stereo not drawn) [Deacetyl HP530D], the MIC was 50 µg/mL (≈ 87.2 µM). With Cc1cc2c(c3oc(C4(C)OC4C)cc(=O)c13)C(=O)c1c(ccc(C3CC(C)(N(C)C)C(O)C(C)O3)c1O)C2=O (stereo not drawn) [Deacetyl HP530E] the MIC was > 100 µg/mL.

System: Xanthomonas maltophilia JCM1975
Test: Antimicrobial activity (MIC), Xanthomonas maltophilia
Type: cell-based
Settings: Stenotrophomonas maltophilia
Excerpt: as §1
CC=CC1OC1(C)c1cc(=O)c2c(C)cc3c(c2o1)C(=O)c1c(ccc(C2CC(C)(N(C)C)C(O)C(C)O2)c1O)C3=O (stereo not drawn) [Deacetyl HP530D] showed an MIC of 50 µg/mL (≈ 87.2 µM). Cc1cc2c(c3oc(C4(C)OC4C)cc(=O)c13)C(=O)c1c(ccc(C3CC(C)(N(C)C)C(O)C(C)O3)c1O)C2=O (stereo not drawn) [Deacetyl HP530E] showed an MIC of 25 µg/mL (≈ 45.7 µM).

System: not listed separately
Test: Solubility
Settings: ethyl acetate, acetone, n-hexane
For CC=CC1OC1(C)c1cc(=O)c2c(C)cc3c(c2o1)C(=O)c1c(ccc(C2CC(C)(N(C)C)C(O)C(C)O2)c1O)C3=O (stereo not drawn) [Deacetyl HP530D], the Solubility was “hardly soluble in ethyl acetate, acetone and n-hexane”. In the case of Cc1cc2c(c3oc(C4(C)OC4C)cc(=O)c13)C(=O)c1c(ccc(C3CC(C)(N(C)C)C(O)C(C)O3)c1O)C2=O (stereo not drawn) [Deacetyl HP530E], the Solubility is reported as “hardly soluble in ethyl acetate, acetone and n-hexane”.

Same assay, conditions: solvents in which soluble (acidic water, organic solvents)
For CC=CC1OC1(C)c1cc(=O)c2c(C)cc3c(c2o1)C(=O)c1c(ccc(C2CC(C)(N(C)C)C(O)C(C)O2)c1O)C3=O (stereo not drawn) [Deacetyl HP530D], the Solubility was “Soluble in acidic water, methanol, chloroform and benzene”. With Cc1cc2c(c3oc(C4(C)OC4C)cc(=O)c13)C(=O)c1c(ccc(C3CC(C)(N(C)C)C(O)C(C)O3)c1O)C2=O (stereo not drawn) [Deacetyl HP530E] the Solubility was “Soluble in acidic water, methanol, chloroform and benzene”.

Same assay, conditions: water
In the case of CC=CC1OC1(C)c1cc(=O)c2c(C)cc3c(c2o1)C(=O)c1c(ccc(C2CC(C)(N(C)C)C(O)C(C)O2)c1O)C3=O (stereo not drawn) [Deacetyl HP530D], the Solubility is reported as “insoluble in water”. In the case of Cc1cc2c(c3oc(C4(C)OC4C)cc(=O)c13)C(=O)c1c(ccc(C3CC(C)(N(C)C)C(O)C(C)O3)c1O)C2=O (stereo not drawn) [Deacetyl HP530E], the Solubility is reported as “insoluble in water”.

System: mouse fibrosarcoma Meth-A cell line
Test: Antitumor activity, increase in life span of CDF1 mice inoculated with Meth-A cells
Type: in vivo
Settings: 0.25 mg/kg i.p. once a day, day 1-4
Excerpt: 1) CDF1 mice were inoculated intraperitoneally with 1×10^6 cells of mouse fibrosarcoma Meth-A cell line on day 0. HP530 compounds and their derivatives dissolved in a physiological salt solution were administrated intraperitoneally once a day on day 1-4. Increase in life span is represented by the percentage of the ratio of the mean number of surviving days (T) of the treated groups of mice to the mean number of surviving days (C) of the untreated groups of mice.
In the case of CC=CC1OC1(C)c1cc(=O)c2c(C)cc3c(c2o1)C(=O)c1c(ccc(C2CC(C)(N(C)C)C(O)C(C)O2)c1O)C3=O (stereo not drawn) [Deacetyl HP530D], the “Antitumor Activity T/C” value is reported as 92%.

Same assay, conditions: 0.5 mg/kg i.p. once a day, day 1-4
For CC=CC1OC1(C)c1cc(=O)c2c(C)cc3c(c2o1)C(=O)c1c(ccc(C2CC(C)(N(C)C)C(O)C(C)O2)c1O)C3=O (stereo not drawn) [Deacetyl HP530D], the “Antitumor Activity T/C” value was 108%.

Same assay, conditions: 1.0 mg/kg i.p. once a day, day 1-4
For CC=CC1OC1(C)c1cc(=O)c2c(C)cc3c(c2o1)C(=O)c1c(ccc(C2CC(C)(N(C)C)C(O)C(C)O2)c1O)C3=O (stereo not drawn) [Deacetyl HP530D], the “Antitumor Activity T/C” value was 123%.

Same assay, conditions: 1.25 mg/kg i.p. once a day, day 1-4
With Cc1cc2c(c3oc(C4(C)OC4C)cc(=O)c13)C(=O)c1c(ccc(C3CC(C)(N(C)C)C(O)C(C)O3)c1O)C2=O (stereo not drawn) [Deacetyl HP530E] the “Antitumor Activity T/C” value was 107%.

Same assay, conditions: 2.0 mg/kg i.p. once a day, day 1-4
For CC=CC1OC1(C)c1cc(=O)c2c(C)cc3c(c2o1)C(=O)c1c(ccc(C2CC(C)(N(C)C)C(O)C(C)O2)c1O)C3=O (stereo not drawn) [Deacetyl HP530D], the “Antitumor Activity T/C” value was 185%.

Same assay, conditions: 2.5 mg/kg i.p. once a day, day 1-4
In the case of Cc1cc2c(c3oc(C4(C)OC4C)cc(=O)c13)C(=O)c1c(ccc(C3CC(C)(N(C)C)C(O)C(C)O3)c1O)C2=O (stereo not drawn) [Deacetyl HP530E], the “Antitumor Activity T/C” value is reported as 183%.

Same assay, conditions: 5.0 mg/kg i.p. once a day, day 1-4
For Cc1cc2c(c3oc(C4(C)OC4C)cc(=O)c13)C(=O)c1c(ccc(C3CC(C)(N(C)C)C(O)C(C)O3)c1O)C2=O (stereo not drawn) [Deacetyl HP530E], the “Antitumor Activity T/C” value was > 187%.

Same assay, conditions: 10.0 mg/kg i.p. once a day, day 1-4
With Cc1cc2c(c3oc(C4(C)OC4C)cc(=O)c13)C(=O)c1c(ccc(C3CC(C)(N(C)C)C(O)C(C)O3)c1O)C2=O (stereo not drawn) [Deacetyl HP530E] the “Antitumor Activity T/C” value was 83%.

System: CDF1 mice
Test: Acute toxicity in CDF1 mice
Type: in vivo, mouse
Settings: 5 mg/kg, intraperitoneal, three CDF1 mice
In the case of Cc1cc2c(c3oc(C4(C)OC4C)cc(=O)c13)C(=O)c1c(ccc(C3CC(C)(N(C)C)C(O)C(C)O3)c1O)C2=O (stereo not drawn) [Deacetyl HP530E], the Acute toxicity is reported as “no toxicity”.

Same assay, conditions: 20 mg/kg, intraperitoneal, three CDF1 mice
For CC=CC1OC1(C)c1cc(=O)c2c(C)cc3c(c2o1)C(=O)c1c(ccc(C2CC(C)(N(C)C)C(O)C(C)O2)c1O)C3=O (stereo not drawn) [Deacetyl HP530D], the Acute toxicity was “no toxicity”.

System: Salmonella typhimurium TA1535
Test: Antimicrobial activity (MIC), Salmonella typhimurium
Type: cell-based
Settings: Salmonella enterica
Excerpt: as §1
In the case of CC=CC1OC1(C)c1cc(=O)c2c(C)cc3c(c2o1)C(=O)c1c(ccc(C2CC(C)(N(C)C)C(O)C(C)O2)c1O)C3=O (stereo not drawn) [Deacetyl HP530D], the MIC is reported as 3.2 µg/mL (≈ 5.58 µM). With Cc1cc2c(c3oc(C4(C)OC4C)cc(=O)c13)C(=O)c1c(ccc(C3CC(C)(N(C)C)C(O)C(C)O3)c1O)C2=O (stereo not drawn) [Deacetyl HP530E] the MIC was 0.4 µg/mL (≈ 0.73 µM).

System: W98 cell line
Test: Cytotoxicity (IC100) against W98 cell line
Type: cell-based
Settings: Homo sapiens; W98 cells, final 10% methanol solutions; read-out: IC100 (100% growth inhibiting concentration)
Experimental: 2) Cytotoxicity (IC100) against W98 cell line obtained by converting the lung cells of a human emryo by an SV40 virus was examined in the following way. When the HP530 compounds and their derivatives dissolved in methanol were added to culture solutions in such a manner that the culture solutions were prepared final 10% methanol solutions, the cytotoxicity of the HP530 compounds and their derivatives against the growth of the W98 cells in the culture solution was measured as 100% growth inhibiting concentration (IC100).
Work on CC=CC1OC1(C)c1cc(=O)c2c(C)cc3c(c2o1)C(=O)c1c(ccc(C2CC(C)(N(C)C)C(O)C(C)O2)c1O)C3=O (stereo not drawn) [Deacetyl HP530D] yielded an IC100 of 0.00015 µg/mL. Cc1cc2c(c3oc(C4(C)OC4C)cc(=O)c13)C(=O)c1c(ccc(C3CC(C)(N(C)C)C(O)C(C)O3)c1O)C2=O (stereo not drawn) [Deacetyl HP530E] showed an IC100 of 0.00015 µg/mL.

System: Micrococcus luteus JCM1464
Test: Antimicrobial activity (MIC), Micrococcus luteus
Type: cell-based
Settings: not given
Excerpt: as §1
CC=CC1OC1(C)c1cc(=O)c2c(C)cc3c(c2o1)C(=O)c1c(ccc(C2CC(C)(N(C)C)C(O)C(C)O2)c1O)C3=O (stereo not drawn) [Deacetyl HP530D] showed an MIC of 1.6 µg/mL (≈ 2.79 µM). For Cc1cc2c(c3oc(C4(C)OC4C)cc(=O)c13)C(=O)c1c(ccc(C3CC(C)(N(C)C)C(O)C(C)O3)c1O)C2=O (stereo not drawn) [Deacetyl HP530E], the MIC was 0.4 µg/mL (≈ 0.73 µM).

System: Staphylococcus epidermidis JCM2414
Test: Antimicrobial activity (MIC), Staphylococcus epidermidis
Type: cell-based
Settings: not given
Excerpt: as §1
For CC=CC1OC1(C)c1cc(=O)c2c(C)cc3c(c2o1)C(=O)c1c(ccc(C2CC(C)(N(C)C)C(O)C(C)O2)c1O)C3=O (stereo not drawn) [Deacetyl HP530D], the MIC was 6.3 µg/mL (≈ 11 µM). For Cc1cc2c(c3oc(C4(C)OC4C)cc(=O)c13)C(=O)c1c(ccc(C3CC(C)(N(C)C)C(O)C(C)O3)c1O)C2=O (stereo not drawn) [Deacetyl HP530E], the MIC was 6.3 µg/mL (≈ 11.5 µM).

System: Klebsiella pneumoniae JCM1662
Test: Antimicrobial activity (MIC), Klebsiella pneumoniae
Type: cell-based
Settings: not given
Excerpt: as §1
In the case of CC=CC1OC1(C)c1cc(=O)c2c(C)cc3c(c2o1)C(=O)c1c(ccc(C2CC(C)(N(C)C)C(O)C(C)O2)c1O)C3=O (stereo not drawn) [Deacetyl HP530D], the MIC is reported as > 100 µg/mL. In the case of Cc1cc2c(c3oc(C4(C)OC4C)cc(=O)c13)C(=O)c1c(ccc(C3CC(C)(N(C)C)C(O)C(C)O3)c1O)C2=O (stereo not drawn) [Deacetyl HP530E], the MIC is reported as > 100 µg/mL.

System: Bacillus subtilis M45Rec^-
Test: Antimicrobial activity (MIC), Bacillus subtilis M45Rec^-
Type: cell-based
Settings: not given
Excerpt: as §1
With CC=CC1OC1(C)c1cc(=O)c2c(C)cc3c(c2o1)C(=O)c1c(ccc(C2CC(C)(N(C)C)C(O)C(C)O2)c1O)C3=O (stereo not drawn) [Deacetyl HP530D] the MIC was 0.4 µg/mL (≈ 0.697 µM). Work on Cc1cc2c(c3oc(C4(C)OC4C)cc(=O)c13)C(=O)c1c(ccc(C3CC(C)(N(C)C)C(O)C(C)O3)c1O)C2=O (stereo not drawn) [Deacetyl HP530E] yielded an MIC of 0.2 µg/mL (≈ 0.365 µM).

System: Escherichia coli JCM1649
Test: Antimicrobial activity (MIC), Escherichia coli
Type: cell-based
Settings: not given
Excerpt: as §1
For CC=CC1OC1(C)c1cc(=O)c2c(C)cc3c(c2o1)C(=O)c1c(ccc(C2CC(C)(N(C)C)C(O)C(C)O2)c1O)C3=O (stereo not drawn) [Deacetyl HP530D], the MIC was > 100 µg/mL. For Cc1cc2c(c3oc(C4(C)OC4C)cc(=O)c13)C(=O)c1c(ccc(C3CC(C)(N(C)C)C(O)C(C)O3)c1O)C2=O (stereo not drawn) [Deacetyl HP530E], the MIC was > 100 µg/mL.

System: Candida albicans JCM1542
Test: Antimicrobial activity (MIC), Candida albicans
Type: cell-based
Settings: not given
Excerpt: as §1
For CC=CC1OC1(C)c1cc(=O)c2c(C)cc3c(c2o1)C(=O)c1c(ccc(C2CC(C)(N(C)C)C(O)C(C)O2)c1O)C3=O (stereo not drawn) [Deacetyl HP530D], the MIC was > 100 µg/mL. In the case of Cc1cc2c(c3oc(C4(C)OC4C)cc(=O)c13)C(=O)c1c(ccc(C3CC(C)(N(C)C)C(O)C(C)O3)c1O)C2=O (stereo not drawn) [Deacetyl HP530E], the MIC is reported as > 100 µg/mL.

System: Staphylococcus aureus JCM2151
Test: Antimicrobial activity (MIC), Staphylococcus aureus
Type: cell-based
Settings: not given
Excerpt: as §1
For CC=CC1OC1(C)c1cc(=O)c2c(C)cc3c(c2o1)C(=O)c1c(ccc(C2CC(C)(N(C)C)C(O)C(C)O2)c1O)C3=O (stereo not drawn) [Deacetyl HP530D], the MIC was 1.6 µg/mL (≈ 2.79 µM). In the case of Cc1cc2c(c3oc(C4(C)OC4C)cc(=O)c13)C(=O)c1c(ccc(C3CC(C)(N(C)C)C(O)C(C)O3)c1O)C2=O (stereo not drawn) [Deacetyl HP530E], the MIC is reported as 3.2 µg/mL (≈ 5.84 µM).
